Results on 13 compounds are retold here after ChEMBL document CHEMBL3044602, “In vitro antiproliferative effect of -phenylethylamine derivatives and doxorubicin combinations on MCF/ADR cell lines” (Med Chem Res, 2013).

The nature of data set [1]: Cytotoxicity against Homo sapiens (human) MCF7/ADR cells assessed as inhibition of cell proliferation after 48 hr by SRB assay. In kind it is cell-based, NCI/ADR-RES. The following applies: for IC10: human. A general note: In SRB staining, fixed cells bind dye roughly in proportion to their protein.
The next data set concerns MCF7. Nature of the data set: Cytotoxicity against Homo sapiens (human) MCF7 cells assessed as inhibition of cell proliferation after 48 hr by SRB assay. The class given is cell-based. The following applies: mcf7, 48 h.
The target in data set [2] is ATP-dependent translocase ABCB1 (Homo sapiens, UniProt P08183). Briefly: Inhibition of P-glycoprotein in Homo sapiens (human) MCF7/ADR cells assessed as doxorubicin-induced growth inhibition after 48 hr by SRB assay (Doxorubicin Rvb = 5.1 +/-1.2%). The class given is cell-based. The following applies: nci/adr-res.
Where [3] appears, read: Homo sapiens, NCI/ADR-RES, 48 h.

pIC50: −log10 of the molar value.

ATP-dependent translocase ABCB1, sequence (P08183 whole entry): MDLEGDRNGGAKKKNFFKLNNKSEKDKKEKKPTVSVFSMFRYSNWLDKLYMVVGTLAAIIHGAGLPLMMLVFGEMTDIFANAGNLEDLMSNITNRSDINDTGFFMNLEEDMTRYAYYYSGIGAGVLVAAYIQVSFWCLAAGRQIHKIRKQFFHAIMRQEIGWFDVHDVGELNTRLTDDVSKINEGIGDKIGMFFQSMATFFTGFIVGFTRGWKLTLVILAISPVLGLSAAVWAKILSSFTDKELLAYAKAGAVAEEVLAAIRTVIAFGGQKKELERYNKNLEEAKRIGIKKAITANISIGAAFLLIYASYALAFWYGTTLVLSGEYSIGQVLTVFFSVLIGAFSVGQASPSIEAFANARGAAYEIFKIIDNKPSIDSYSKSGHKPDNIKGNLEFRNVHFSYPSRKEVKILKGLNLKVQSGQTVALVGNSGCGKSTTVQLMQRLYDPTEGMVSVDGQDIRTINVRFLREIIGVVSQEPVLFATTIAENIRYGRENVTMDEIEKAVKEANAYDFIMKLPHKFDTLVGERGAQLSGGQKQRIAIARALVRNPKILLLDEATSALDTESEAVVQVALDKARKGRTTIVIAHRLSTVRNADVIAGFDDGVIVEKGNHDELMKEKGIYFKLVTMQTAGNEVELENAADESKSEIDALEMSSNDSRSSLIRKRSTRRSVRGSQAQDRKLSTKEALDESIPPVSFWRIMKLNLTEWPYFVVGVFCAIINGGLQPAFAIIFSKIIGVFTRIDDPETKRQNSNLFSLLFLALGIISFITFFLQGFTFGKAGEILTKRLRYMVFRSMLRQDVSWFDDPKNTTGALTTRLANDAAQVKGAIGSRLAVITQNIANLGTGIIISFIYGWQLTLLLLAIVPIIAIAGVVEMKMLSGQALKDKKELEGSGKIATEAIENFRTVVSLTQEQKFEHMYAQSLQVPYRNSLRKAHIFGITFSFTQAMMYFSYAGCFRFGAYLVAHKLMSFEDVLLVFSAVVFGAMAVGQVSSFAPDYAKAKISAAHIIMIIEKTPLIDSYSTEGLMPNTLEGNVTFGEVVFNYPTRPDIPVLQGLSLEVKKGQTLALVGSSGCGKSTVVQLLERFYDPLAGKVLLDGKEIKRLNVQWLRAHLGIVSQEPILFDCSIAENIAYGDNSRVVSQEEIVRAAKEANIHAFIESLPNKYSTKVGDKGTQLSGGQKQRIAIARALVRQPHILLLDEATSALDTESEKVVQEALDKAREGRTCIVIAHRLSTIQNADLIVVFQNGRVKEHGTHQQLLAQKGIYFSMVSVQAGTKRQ

Take `COC(=O)/C(=C\c1ccc([N+](=O)[O-])cc1)CNCCc1ccc(OC)c(OC)c1`: the pIC50 in data set [1] (setting [3]) is 6.05. Further, the 10% effect concentration (IC10) in data set [1] (nci/adr-res, 48 h) is 0.05 µM.
Regarding `COC(=O)C(CNCCc1ccc(OC)c(OC)c1)C(O)c1ccc([N+](=O)[O-])cc1` (centres undefined), in the data set with MCF7, the Activity result is reported as “Non-toxic”. The negative-log IC50 (pIC50) in data set [1] (setting [3]) was 4.07. Also, the 10% effect concentration (IC10) in data set [1] (nci/adr-res, 48 h) came out at 15.7 µM. Further, in data set [2], the “growth inhibition (GI)” value is given as 12.9%.
`COC(=O)/C(=C\c1ccccc1)CNCCc1ccc(OC)c(OC)c1`: the Activity result with MCF7 was “Non-toxic”. The pIC50 in data set [1] (setting [3]) is 4.12. The IC10 in data set [1] (nci/adr-res, 48 h) was 12.9 µM. In addition, the “growth inhibition (GI)” value in data set [2] is recorded as 16.1%.
Turning to `COC(=O)/C(=C\c1ccc(OC)c(OC)c1)CNCCc1ccc(OC)c(OC)c1`, in the data set with MCF7, the Activity entry was “Non-toxic”. In addition, the pIC50 in data set [1] (setting [3]) was 3.95. In addition, the IC10 in data set [1] (nci/adr-res, 48 h) was determined as 7.47 µM. Further, the “growth inhibition (GI)” value in data set [2] is given as 87.7%.
On the same counts, the results for `COC(=O)/C(=C\c1ccc2c(c1)OCO2)CNCCc1ccc(OC)c(OC)c1` are “Non-toxic”, 3.61, 13.8 µM and 43.3%.
In the case of `COC(=O)C(CNCCc1ccc(OC)c(OC)c1)C(O)c1ccc(OC)c(OC)c1` (mixture of isomers), in the data set with MCF7, the Activity entry was “Non-toxic”. In addition, in data set [2], the “growth inhibition (GI)” value worked out at 6.8%.
For the compound `COC(=O)C(CNCCc1ccc(OC)c(OC)c1)C(O)c1ccccc1` (mixture of isomers), the Activity entry in the data set on MCF7 was “Non-toxic”. For the same compound, the pIC50 in data set [1] (setting [3]) is 3.62. Further, the IC10 in data set [1] (nci/adr-res, 48 h) came to 14 µM. Further, in data set [2], the “growth inhibition (GI)” value turned out to be 11.8%.
As to `COC(=O)C(CNCCc1ccc(OC)c(OC)c1)C(O)c1ccc2c(c1)OCO2` (mixture of isomers), the Activity entry in the data set with MCF7 was “Non-toxic”. Besides, the pIC50 in data set [1] (setting [3]) was 3.62. Moreover, the concentration for an effect of 10% (IC10) in data set [1] (nci/adr-res, 48 h) worked out at 20.7 µM. Also, the “growth inhibition (GI)” value in data set [2] is 10.4%.
Turning to `COC(=O)C(CNCCc1ccc(OC)c(OC)c1)Cc1ccccc1` (racemic), the Activity result in the data set with MCF7 is “Non-toxic”. In data set [1] (setting [3]), the negative-log IC50 (pIC50) was 3.71. For the same compound, the concentration for an effect of 10% (IC10) in data set [1] (nci/adr-res, 48 h) stood at 15.2 µM. In data set [2], the “growth inhibition (GI)” value stood at 3.2%.
The corresponding values for `COC(=O)C(CNCCc1ccc(OC)c(OC)c1)Cc1ccc(OC)c(OC)c1` (racemic) are “Non-toxic”, 4.54, 2.39 µM and 6.9%.
For `COC(=O)C(CNCCc1ccc(OC)c(OC)c1)Cc1ccc2c(c1)OCO2` (racemic), the Activity result in the data set on MCF7 is reported as “Non-toxic”. The pIC50 in data set [1] (setting [3]) was 3.73. Moreover, the IC10 in data set [1] (nci/adr-res, 48 h) was determined as 10.5 µM. For the same compound, the “growth inhibition (GI)” value in data set [2] was determined as 5.8%.
Take `COC(=O)C(CNCCc1ccc(OC)c(OC)c1)C(O)c1ccc(OC)c(OC)c1` (single isomer, unassigned; form 1): the negative-log IC50 (pIC50) in data set [1] (setting [3]) is 3.43. In data set [1] (nci/adr-res, 48 h), the IC10 was determined as 38.2 µM.
Consider `COC(=O)C(CNCCc1ccc(OC)c(OC)c1)C(O)c1ccc(OC)c(OC)c1` (single isomer, unassigned; form 2), for which the IC10 in data set [1] (nci/adr-res, 48 h) turned out to be 30.1 µM. In addition, in data set [1] (nci/adr-res), the pIC50 was 3.53.

In general, pIC50 refers to −log10 of the IC50, conventionally taken in molar units. The IC10 is the point of the concentration-response curve where the effect stands at 10%.
